Results published in patent US7329638B2, “Drug delivery compositions” (priority 2003, dated 2008).
Where “and” joins values, the source holds several entries; their conditions need not be identical. Identical values can stand only once.

How the values were obtained:
MCF7/ADR cells = experiment: MTT cytotoxicity and drug accumulation in doxorubicin resistant MCF7/ADR cells; assay type: cell-based; details: for IC50: Homo sapiens, NCI/ADR-RES, 48 h, MCF7/ADR, 48 hrs exposure, MTT
Protocol: In some embodiments, monolayer doxorubicin sensitive (MCF7) and resistant (MCF7/ADR) cells were then exposed to either doxorubicin or TAT-Dox conjugates at various concentrations (up to 100 μM) for 48 hrs in the presence or absence of 10 μM verapamil. Cell viability was measured by MTT assay. […] Verapamil, a P-glycoprotein inhibitor, was able to restore most of the cytotoxic activities of free doxorubicin.

[1] = oral administration; cited from earlier work
implanted tumors = experiment: Tumor regression in tumor-bearing mice, intratumoral injection (RNase series); assay type: in vivo; details: excised thirty days (4 weeks) after initial treatment
Protocol: Drugs were administered by intratumoral injection. Injections were started 3 weeks after tumor cell implantation when tumors reached the size about 100 mm^3. Thirty days after initial treatment, mice were sacrificed and their tumors were excised, weighed, and photographed.
For example, in test animals an average tumor weight of 2.92±0.47 g (N=5) was observed 4 weeks after treatment (Lane 4; FIG. 11B) that was statistically indistinguishable from the value of 3.16±0.65 g (Lane 2 in FIG. 11B) of the control group without treatment. […] The addition of protamine to the heparin-inhibited TAT-RNase conjugates completely reversed inhibition and tumor growth was regressed to an insignificant weight of 0.09±0.05 g (Lane 5; FIG. 11B).

CT-26 cells = experiment: Translocation of rhodamine-labeled gelonin by TAT or LMWP (fluorescence microscopy); assay type: cell-based; details: CT-26, 2 hrs incubation
Protocol: FIGS. 15A and 15B show the translocation of gelonin into the CT-26 cells with the aid of: TAT (FIG. 15A); or LMWP (FIG. 15B). Fluorescent microscopy was conducted on cells treated with rhodamine-labeled TAT- or LMWP-gelonin following 2 hrs of incubation in CT-26 cells.
In some embodiments, studies were preformed to compare the capabilities of LMWP and TAT in protein translocation. In some of these embodiments, the LMWP and TAT peptides were conjugated to gelonin using the PDPH method described herein. To create a -SH group for coupling, LMWP was modified prior to its conjugation by treatment with SPDP and DTT, using the protocol established by J. Carlsson et al., (J. Carlsson et al., Biochem. J., 173:723-737 [1978]). Gelonin was labeled with rhodamine prior to conjugation.

MCF-7 cells [2] = experiment: Cell translocation and uptake kinetics of FITC-labeled LMWP and TAT; assay type: cell-based
Protocol: Cells were incubated with the FITC-labeled peptides and then lysed. Fluorescence intensities in the supernatants were measured.
In some embodiments, purified LMWP was prepared according to the method described in L.C. Chang et al., AAPS PharmSci., 3(2) Article 17 [2001]. In some additional embodiments, cell internalization characteristics of TAT and LMWP were compared by confocol microscopy using FITC-labeled peptides. Like TAT, after 15 min of incubation with MCF-7 cells at 37° C., more than 70% of the FITC-labeled LMWP entered the cytosol of the MCF-7 cells (FIG. 13). […] The reason for the difference in cell localization remains unclear, however, while the present invention is not limited to any particular mechanism, it is contemplated that TAT, which contains the sequence of the nuclear localization signal (NLS) peptide, can penetrate into the cell's nucleus either through pores on the nuclear envelope, or via binding with certain cytoplasmic components which confer nuclear localization. (L. Chaloin et al., Biochem. Biophys. Res. Commun., 243:601-608 [1998]; and M. A. Zanta M A et al., Proc. Natl. Acad. Sci. USA, 96:91-96 [1999]). In some embodiments, the localization of TAT and TAT-like peptides can be directed to the cytoplasm or to other sites within the cell by making altering portions of its amino acid sequence. (See e.g., M. M. Gottesman et al., Nature Reviews Cancer, 2:48-58 [2002]). In some preferred embodiments, the sequence of the PTD component/subcomponent of the drug delivery composition is selected or modified (e.g., amino acid sequence altered) so that the composition and the therapeutic molecule(s) being carried are localized to the cytoplasm. The present invention contemplates that in certain embodiments the localization of the drug delivery compositions to the cytoplasm aids in the penetration of the therapeutic molecules throughout the targeted tissue (e.g., from the tumor periphery to the tumor core).
FIG. 14 provides a comparison of the rate of cellular uptake of LMWP and TAT. […]

murine tumor tissues = experiment: Tumor penetration of rhodamine-labeled gelonin and TAT-Gel; assay type: in vivo, mice; details: tumors isolated at 10 hrs after injection
Description: FIGS. 18A and 18B show tumor penetration of rhodamine-labeled TAT-Gel conjugates (FIG. 18A), and free gelonin (FIG. 18B). Tumors were isolated at 10 hrs after injection of the rhodamine-labeled TAT-Gel conjugate or free gelonin and then photographed.
To further confirm that TAT-Gel conjugates penetrate into tumor tissues, rhodamine-labeled gelonin was used in several additional in vivo studies. […] The extremely efficient tumor penetration and widespread drug distribution capabilities of the compositions and methods of the present invention are of great significance to anticancer therapy.

CT26 colon carcinoma = experiment: Tumor regression in CT-26 tumor-bearing mice, intratumoral injection (gelonin series); assay type: in vivo, BALB/c mice
MCF-7 cells [3] = experiment: Cellular uptake of FITC-labeled gelonin and TAT-Gel (FACS and confocal microscopy); assay type: cell-based; details: MCF-7, FITC label, 10 nM, 1 hr at 37° C.
Protocol: FIGS. 7A-7D show the cellular uptake of TAT and TAT-Gel conjugates into MCF-7 cells. The left two panels provide confocol microphotograph sections of DIC image and corresponding fluorescent images, whereas right panels show FACS results (ordinate, number of cells, abcissa, fluorescent intensity). Cells were treated with FITC-labeled gelonin (FIG. 7A); TAT-Gel (FIG. 7B); TAT-Gel+heparin (FIG. 7C); and TAT-Gel+heparin and then+protamine (FIG. 7D). Protein concentration was adjusted to 10 nM, and the incubation time was 1 hr at 37° C.
In certain embodiments, the TAT-mediated cell internalization and the cytotoxicity of TAT-Gel were examined in vitro in MCF-7 and CT-26 cell cultures. The membrane-transducing ability of the TAT-Gel conjugates was determined using fluorescence (FITC)-labeled gelonin or TAT-Gel added to the culture media of MCF-7 cells, followed by analysis by both the fluorescence activated cell sorting (FACS) and confocol microscopy. […] On the other hand, almost all of the FITC labels were found inside, and specifically inside the cytosol (see confocol results), of all (˜100%) cells (see the FACS data) within one hour of incubation of the cells with the TAT-Gel conjugates (FIG. 7B). Considering the fact that gelonin exerts its cytotoxic activity via binding with ribosomes and cleaving RNA, this cytosolic localization actually yields beneficial therapeutic affects. […]

[4] = test system: CT-26 murine adenocarcinoma colon cancer cells; experiment: MTT cytotoxicity in CT-26 cells in log-phase culture; assay type: cell-based; details: CT-26, MTT
Protocol: Various doses of each test compound were added to 96-well culture plates containing approximately 5,000 cells/well. The plates were incubated for 48 hrs at 37° C. under an atmosphere of 5% CO2 in humidified air. Remaining cells were assessed using MTT and compared to untreated control wells. Values shown are means±standard deviation.
Cytotoxicity was measured as described in FIG. 8.
Various doses of each compound were added to 96-well culture plates containing approximately 5,000 cells/well. The plates were incubated for 48 hrs at 37° C. under an atmosphere of 5% CO2 in humidified air in an incubator. Test cells were assessed by MTT assay and then compared to untreated cells in control wells. Values are represented as means±standard deviation. Each experiment was performed in triplicate.
In additional embodiments, the cytotoxicity of gelonin and the TAT-Gel conjugates were examined in CT-26 murine adenocarcinoma colon cancer cells in log-phase culture.

## COc1cccc2c1C(=O)c1c(O)c3c(c(O)c1C2=O)C[C@@](O)(C(=O)CO)C[C@@H]3O[C@H]1C[C@H](N)[C@H](O)[C@H](C)O1 [Dox, doxorubicin]
MCF7/ADR cells; Verapamil (10 μM)
  IC50: 6.7 µM
MCF7/ADR cells; without verapamil
  IC50: 45.2 µM
MCF7/ADR cells; MCF7/MDR cells
  IC50 of free doxorubicin relative to Dox-TAT conjugates: ~8 fold
MCF7/ADR cells; MDR cells
  amount of doxorubicin seen in cells by fluorescence microscopy: negligible amount

## N[C@@H](Cc1ccc(O)c(O)c1)C(=O)O [levodopa, L-3,4-dihydroxy-phenylalanine]
[1]
  fraction that penetrates the CNS: less than 1%

## RNase
Implanted tumors
  average tumor mass: 2.92 ± 0.47 g

## TAT: highly cationic 11 amino acid section of the TAT-peptide (YGRKKRRQRRR; SEQ ID NO:6)
CT-26 cells
  translocation of rhodamine-labeled gelonin into cells: capable of translocating gelonin
MCF-7 cells [2]; MCF-7
  rate of cellular uptake (comparison in words): slightly faster cellular uptake than LMWP
MCF-7 cells [2]; MCF-7, FITC-labeled peptides
  incubation time at which cellular concentration reached a maximum: 30 min
MCF-7 cells [2]; MCF-7, after 30 min incubation
  subcellular localization: primarily localizes in the nucleus

## gelonin
Murine tumor tissues
  tumor penetration (rhodamine staining of excised tumor): virtually no staining or only sporadic weak staining
CT26 colon carcinoma; excised thirty days (four weeks) after initial treatment, intratumoral, 9 treatments
  average tumor mass: 2.63 ± 0.5 g and 2.62 ± 0.53 g
CT26 colon carcinoma; two and four weeks after intratumoral injection
  gross appearance of tumor after treatment: not cytotoxic to the tumor
MCF-7 cells [3]
  cellular uptake (confocal and FACS, in words): virtually no cellular uptake
[4]
  cytotoxicity / inhibition of cell growth (in words): did not induce cell death
[4]; listed as Gelonin
  cytotoxicity / inhibition of cell growth (in words): did not display any detectable inhibition on cell growth
